Test results published in paper PMC10618370, “Mur ligase F as a new target for the flavonoids quercitrin, myricetin, and (–)-epicatechin” (Journal of Computer-Aided Molecular Design, 2023).
Converted amounts (≈) assume the structure as drawn. “Also recorded” adds a separate entry of the source. Read-outs that look alike come from different tables or passages of the source.

Key:
[1] = biological target: E. coli MurC (Escherichia coli, UniProt P17952); assay: MurC inhibition assay (Malachite green); type: biochemical; conditions: 0.25 h; residual activity at 100 µM compound; mean ± SD of three independent experiments; read-out: RA (%) @ 100 µM MurC
Procedure: (§1) Inhibition of the Mur ligases was determined using the Malachite green assay, with slight modifications. […] In all cases, the final concentration of DMSO was 5% (v/v).
(§2) After incubation for 15 min at 37 °C, the enzyme reaction was terminated by the addition of 100 µM Biomol green reagent®, and the absorbance was measured at 650 nm after 5 min. Experiments to determine the RA run in triplicate. Residual activities were calculated with respect to control assays without the tested compounds, but with the 5% DMSO carrier. The IC50 values were determined by measuring the residual activities at seven different compound concentrations, and they represent the concentration of the compound at which the residual activity was 50%. IC50 values were obtained by plotting the residual enzyme activities against the applied inhibitor concentrations, fitting the experimental data to the 4-parameter Hill equation: Y=Bottom-Top-Bottom/1+10^logIC50-X×HillSlope , where X is the logarithm of the inhibitor concentration, and Y is the residual activity. The IC50 values were determined in three independent experiments. GraphPad Prism 8.2.0 (GraphPad Software, San Diego, CA, USA) was used for the fitting procedure.
(§3) The assay detects the phosphate formed in each enzyme reaction. To avoid any possibility of the compounds inhibiting the enzymes due to aggregation, a detergent (0.005% Triton-X114) was added to the test system.

[2] = biological target: E. coli MurD (Escherichia coli, UniProt P14900); assay: MurD inhibition assay (Malachite green); type: biochemical; conditions: 0.25 h; residual activity at 100 µM compound; mean ± SD of three independent experiments; read-out: RA (%) @ 100 µM MurD
Procedure: as §1, §2, §3

[3] = biological target: E. coli MurE (Escherichia coli, UniProt P22188); assay: MurE inhibition assay (Malachite green); type: biochemical; conditions: for remaining activity at 100 µM: 0.25 h, residual activity at 100 µM compound, mean ± SD of three independent experiments, read-out: RA (%) @ 100 µM MurE
Procedure: as §1, §2, §3

[4] = biological target: E. coli MurF (Escherichia coli, UniProt P11880); assay: MurF inhibition assay (Malachite green); type: biochemical; conditions: for IC50: seven compound concentrations, 4-parameter Hill fit, three independent experiments; for remaining activity at 100 µM: 0.25 h, residual activity at 100 µM compound, mean ± SD of three independent experiments, read-out: RA (%) @ 100 µM MurF
Procedure: as §1, §2, §3

[5] = system: E. coli (ATCC 25,922); assay: Antibacterial assay, broth microdilution MIC; type: cell-based; conditions: for MIC: Escherichia coli, read-out: MIC E.coli
Procedure: (§4) Antimicrobial testing was performed by the broth microdilution method in 96-well plates following the Clinical and Laboratory Standards Institute guidelines and European Committee on Antimicrobial Susceptibility Testing recommendations (Clinical and Laboratory Standards Institute). Bacterial suspensions equivalent to 0.5 McFarland turbidity standard were diluted with cation-adjusted Mueller–Hinton broth with TES buffering (ThermoFisher Scientific), for a final inoculum of 10^5 CFU/ mL. Compounds dissolved in DMSO and the inoculum were mixed and incubated for 20 h at 35 °C. […] The MICs were determined against two reference bacterial strains, S. aureus (ATCC 29,213) and E. coli (ATCC 25,922). Tetracycline was used as the positive control on every assay plate, with MICs of 0.5 and 1 µg/mL for S. aureus and E. coli, respectively. All MICs were determined in three independent experiments.

[6] = system: S. aureus (ATCC 29,213); assay: Antibacterial assay, broth microdilution MIC; type: cell-based; conditions: for MIC: Staphylococcus aureus
Procedure: as §4

[7] = Solubility under the Mur ligase assay conditions; type: physicochemical
[8] = biological target: MurF from E. coli (Escherichia coli, UniProt P11880); assay: Steady-state kinetic analysis of compound 21; type: biochemical
Procedure: For compound 21, Ki values were determined against MurF from E. coli. Ki determinations were performed under similar conditions to those described for the inhibition assay, where the different concentrations of one substrate and a fixed concentration of the other two were used. First, the concentration of UM3DAP was varied (25, 50, 100, 200 µM) at fixed ATP (500 µM) and D-Ala-D-Ala (600 µM)), then the concentration of D-Ala-D-Ala was varied (50, 100, 200, 400, 600 µM) at fixed ATP (500 µM) and UM3DAP (100 µM), and finally, the concentration of ATP was varied (50, 100, 350, 500 µM) at fixed UM3DAP (100 µM) and D-Ala-D-Ala (600 µM). The concentrations of 21 were 0, 25, 50, 75, 100, 200, 350 and 500 µM and the concentration of the MurF was 20 nM. After a 15 min incubation, 100 µM Biomol green reagent® was added, and the absorbance was read at 650 nm after 5 min. All experiments were run in triplicate.
The data were analysed using the SigmaPlot 12.0 software. The initial velocities were fitted to competitive, non-competitive, uncompetitive and mixed enzyme inhibition. The Ki and mode of inhibition from the best ranking model were used, as provided by the software.

[9] = ATCC29, 20 h, read-out: MIC S.aureus
[10] = ATCC25, broth microdilution, 20 h at 35 °C
[11] = ATCC29, broth microdilution, 20 h at 35 °C, read-out: MIC S.aureus

Sequence of E. coli MurF (P11880 whole entry): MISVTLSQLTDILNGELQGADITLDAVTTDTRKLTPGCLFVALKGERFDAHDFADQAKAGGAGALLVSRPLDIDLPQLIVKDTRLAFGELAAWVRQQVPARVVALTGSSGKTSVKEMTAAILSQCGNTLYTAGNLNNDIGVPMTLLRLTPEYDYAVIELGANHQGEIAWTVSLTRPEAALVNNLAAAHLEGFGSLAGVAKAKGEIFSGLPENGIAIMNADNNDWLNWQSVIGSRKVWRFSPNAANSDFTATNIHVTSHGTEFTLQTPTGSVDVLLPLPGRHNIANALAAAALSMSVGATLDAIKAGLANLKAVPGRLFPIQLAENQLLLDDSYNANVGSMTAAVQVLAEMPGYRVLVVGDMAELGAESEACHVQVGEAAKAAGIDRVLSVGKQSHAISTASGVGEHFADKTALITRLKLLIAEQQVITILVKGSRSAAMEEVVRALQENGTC
Sequence of MurF from E. coli (P11880 whole entry): as above
Sequence of E. coli MurC (P17952 whole entry): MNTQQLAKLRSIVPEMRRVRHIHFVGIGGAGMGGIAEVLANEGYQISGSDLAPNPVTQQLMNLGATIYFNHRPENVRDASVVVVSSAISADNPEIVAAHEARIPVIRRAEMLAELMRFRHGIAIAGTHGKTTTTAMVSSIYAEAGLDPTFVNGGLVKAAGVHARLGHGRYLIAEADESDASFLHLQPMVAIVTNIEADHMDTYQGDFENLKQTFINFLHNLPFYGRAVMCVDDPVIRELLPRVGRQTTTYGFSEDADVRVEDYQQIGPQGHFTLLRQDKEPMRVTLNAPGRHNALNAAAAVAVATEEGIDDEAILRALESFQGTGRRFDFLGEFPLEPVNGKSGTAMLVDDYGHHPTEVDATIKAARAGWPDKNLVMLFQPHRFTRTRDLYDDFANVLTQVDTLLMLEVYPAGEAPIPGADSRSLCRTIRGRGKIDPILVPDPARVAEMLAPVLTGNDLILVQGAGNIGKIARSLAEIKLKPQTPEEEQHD
Sequence of E. coli MurE (P22188 whole entry): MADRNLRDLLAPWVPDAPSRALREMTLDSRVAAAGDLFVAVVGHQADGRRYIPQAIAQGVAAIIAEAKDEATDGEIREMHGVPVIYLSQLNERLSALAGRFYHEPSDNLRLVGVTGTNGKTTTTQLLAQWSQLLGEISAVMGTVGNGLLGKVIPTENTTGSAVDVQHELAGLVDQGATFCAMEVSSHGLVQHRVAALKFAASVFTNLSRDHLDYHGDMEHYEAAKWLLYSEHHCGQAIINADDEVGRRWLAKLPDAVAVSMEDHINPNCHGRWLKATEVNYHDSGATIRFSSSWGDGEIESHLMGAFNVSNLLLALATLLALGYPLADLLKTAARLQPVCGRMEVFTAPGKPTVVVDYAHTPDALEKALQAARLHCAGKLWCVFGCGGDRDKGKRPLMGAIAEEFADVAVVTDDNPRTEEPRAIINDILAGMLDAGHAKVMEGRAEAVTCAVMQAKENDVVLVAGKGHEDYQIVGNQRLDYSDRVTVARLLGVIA
Sequence of E. coli MurD (P14900 whole entry): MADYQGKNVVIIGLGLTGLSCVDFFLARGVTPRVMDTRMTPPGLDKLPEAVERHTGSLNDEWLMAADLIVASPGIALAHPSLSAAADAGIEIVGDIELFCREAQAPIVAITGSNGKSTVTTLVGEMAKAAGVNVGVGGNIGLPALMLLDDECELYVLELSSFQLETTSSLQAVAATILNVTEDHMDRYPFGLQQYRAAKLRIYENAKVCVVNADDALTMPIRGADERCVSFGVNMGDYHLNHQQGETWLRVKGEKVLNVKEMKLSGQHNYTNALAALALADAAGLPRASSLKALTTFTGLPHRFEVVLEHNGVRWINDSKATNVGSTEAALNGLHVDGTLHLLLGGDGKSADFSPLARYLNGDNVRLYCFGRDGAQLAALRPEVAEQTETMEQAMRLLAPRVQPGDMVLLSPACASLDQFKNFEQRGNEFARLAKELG

Row | SMILES | remaining activity at 100 µM [1] [%] | remaining activity at 100 µM [2] [%] | remaining activity at 100 µM [3] [%] | IC50 [4] [µM] | Inhibition of growth of S. aureus (in words) ([6]; broth microdilution) | remaining activity at 100 µM [4] [%] | MIC [5, 10] [µM] | MIC [6, 11] [µM] | other results
1 | C[C@@H]1O[C@@H](Oc2c(-c3ccc(O)c(O)c3)oc3cc(O)cc(O)c3c2=O)[C@H](O)[C@H](O)[C@H]1O [Compound 10, quercitrin] | 98 ± 10 | 77 ± 9 | 98 ± 9 | 143 ± 18 | inactive | – | – | – | MIC ([5]; ATCC25, 20 h): > 250 µM; Inhibition of growth of E. coli (in words) ([5]; broth microdilution): inactive; MIC [6, 9]: > 250 µM
2 | CC1OC(Oc2c(-c3cc(O)c(O)c(O)c3)oc3cc(O)cc(O)c3c2=O)C(O)C(O)C1O (stereo not drawn) [Compound 11] | 97 ± 7 | 89 ± 7 | 100 ± 10 | – | – | 86 ± 9 | > 250 | > 250 | –
3 | O=c1c(O)c(-c2cc(O)c(O)c(O)c2)oc2cc(O)cc(O)c12 [Compound 12, myricetin] | 87 ± 8 | 87 ± 9 | 66 ± 7 | 139 ± 13 | inactive | – | > 250 | > 250 | Inhibition of growth of E. coli (in words) ([5]; broth microdilution): inactive
4 | COc1cc(O)c2c(=O)c(O)c(-c3ccc(O)c(O)c3)oc2c1 [Compound 13] | 66 ± 7 | 71 ± 8 | 82 ± 8 | – | – | 51 ± 6 | > 250 | > 250 | –
5 | O=c1cc(-c2ccc(O)c(O)c2)oc2cc(OC3OC(CO)C(O)C(O)C3O)cc(O)c12 (stereo not drawn) [Compound 15] | 100 ± 9 | 75 ± 6 | 100 | – | – | 92 ± 9 | > 250 | > 250 | –
6 | O=c1c(O)c(-c2ccccc2)oc2cc(O)cc(O)c12 [Compound 16] | 100 ± 8 | 91 ± 7 | 100 ± 10 | – | inhibit the growth | 100 ± 10 | > 250 | 250 (≈ 67.6 µg/mL) | –
7 | O=c1cc(-c2ccccc2)oc2cc(O)cc(O)c12 [Compound 17] | 100 ± 10 | 71 ± 9 | 83 ± 8 | – | – | 100 ± 8 | > 250 | > 250 | –
8 | COc1cc(OC)c2c(=O)cc(-c3ccc(OC)c(OC)c3)oc2c1 [Compound 19] | 100 ± 9 | 100 ± 10 | 100 ± 9 | – | – | 100 ± 9 | – | – | MIC ([5]; ATCC25, 20 h): > 250 µM; MIC [6, 9]: > 250 µM
9 | Oc1cc(O)c2c(c1)O[C@H](c1ccc(O)c(O)c1)[C@@H](O)[C@H]2O [Compound 20, Leucocyanidin] | 95 ± 8 | 91 ± 9 | – | 28 ± 8 | – | – | > 250 | > 250 | IC50 ([3]; seven compound concentrations, 4-parameter Hill fit, three independent experiments): 164 ± 14 µM; Solubility under the assay conditions (in words) [7]: poor solubility
10 | Oc1cc(O)c2c(c1)O[C@H](c1ccc(O)c(O)c1)[C@H](O)C2 [Compound 21, (–)-epicatechin] | 92 ± 8 | 94 ± 9 | 79 ± 8 | 92 ± 13 | inactive | – | > 250 | > 250 | Inhibition of growth of E. coli (in words) ([5]; broth microdilution): inactive; Ki ([8]; substrate ATP varied, UM3DAP 100 µM, D-Ala-D-Ala 600 µM fixed): 28.5 ± 2.7 µM; Ki ([8]; substrate D-Ala-D-Ala varied, ATP 500 µM, UM3DAP 100 µM fixed): 58.2 ± 5.1 µM; Ki ([8]; substrate UM3DAP varied, ATP 500 µM, D-Ala-D-Ala 600 µM fixed): 70.1 ± 4 µM; Mechanism of inhibition ([8]; with respect to ATP): mixed inhibition; also recorded: mixed inhibitor; also recorded: Mixed (partial); α (mixed partial inhibition model) ([8]; with respect to ATP): 1.5; β (mixed partial inhibition model) ([8]; with respect to ATP): 0.4545; Mechanism of inhibition ([8]; with respect to ATP, listed as (–)-epicatechin): mixed type inhibition; Mechanism of inhibition ([8]; with respect to D-Ala-D-Ala): uncompetitive inhibitor; also recorded: Uncompetitive (partial); Mechanism of inhibition ([8]; with respect to D-Ala-D-Ala, listed as (–)-epicatechin): uncompetitive inhibition; Mechanism of inhibition ([8]; with respect to UM3DAP): uncompetitive inhibitor; also recorded: Uncompetitive (partial); Mechanism of inhibition ([8]; with respect to UM3DAP, listed as (–)-epicatechin): uncompetitive inhibition
11 | Oc1cc(O)c2c(c1)O[C@H](c1ccc(O)c(O)c1)[C@@H](O)C2 [Compound 22, (+)-catechin] | 100 ± 10 | 93 ± 8 | 88 ± 8 | – | – | 100 ± 10 | > 250 | > 250 | –
12 | COc1cc(O)c(CC=C(C)C)c(O)c1C(=O)/C=C/c1ccc(O)cc1 [Compound 23, xanthohumol] | 86 ± 8 | 91 ± 10 | 82 ± 7 | – | inhibit the growth | 72 ± 8 | > 250 | 31 (≈ 11 µg/mL) | MIC ([6]; ATCC29, broth microdilution, 20 h at 35 °C, read-out: MIC S. aureus): 31 µM (≈ 11 µg/mL)
13 | COc1cc([C@@H]2[C@H]3CO[C@@]4(O)C(=O)[C@@H]2C=C([C@H]2Oc5cc(O)cc(O)c5C(=O)[C@@H]2O)[C@@H]34)ccc1O [Compound 24, silydianin] | 100 ± 7 | 95 ± 9 | 93 ± 9 | – | – | 99 ± 7 | > 250 | > 250 | –
